Experimental data taken from ChEMBL document CHEMBL5380843 (J Med Chem, 2023).

Legend:
Cytochrome P450 2C19 = Cytochrome P450 2C19 (Homo sapiens, UniProt P33261); assay: Inhibition of CYP2C19 in human liver microsomes using S-mephenytoin as substrate incubated for 15 to 45 mins in presence of NADPH; assay type: ADME, Microsome
[1] = Resistant factor, ratio of EC50 for antiviral activity against HIV-1 IIIB harboring reverse transcriptase Y181C mutant to EC50 for antiviral activity against wild type HIV-1 IIIB; assay type: functional
[2] = system: Human immunodeficiency virus 1; assay: Antiviral activity against wild type HIV-1 IIIB harboring reverse transcriptase K103N mutant infected in human MT4 cells assessed as protection against virus-induced cytopathic effect incubated for 5 days by MTT assay; assay type: functional, organism-based; conditions: Human immunodeficiency virus 1, IIIB, MT4, 120 h
[3] = Resistant factor, ratio of EC50 for antiviral activity against HIV-1 IIIB harboring reverse transcriptase K103N mutant to EC50 for antiviral activity against wild type HIV-1 IIIB; assay type: functional
[4] = system: Human immunodeficiency virus 1; assay: Antiviral activity against wild type HIV-1 IIIB harboring reverse transcriptase Y188L mutant infected in human MT4 cells assessed as protection against virus-induced cytopathic effect incubated for 5 days by MTT assay; assay type: functional, organism-based; conditions: Human immunodeficiency virus 1, IIIB, MT4, 120 h
[5] = Cytotoxicity against human MT4 cells assessed as reduction in cell viability incubated for 5 days by MTT assay; assay type: toxicity, cell-based; conditions: time 5 day
[6] = Resistant factor, ratio of EC50 for antiviral activity against HIV-1 IIIB harboring reverse transcriptase E138K mutant to EC50 for antiviral activity against wild type HIV-1 IIIB; assay type: functional
[7] = system: Human immunodeficiency virus 1; assay: Antiviral activity against wild type HIV-1 IIIB harboring reverse transcriptase […] mutant infected in human MT4 cells assessed as protection against virus-induced cytopathic effect incubated for 5 days by MTT assay; assay type: functional, organism-based; conditions: Human immunodeficiency virus 1, IIIB, MT4, 120 h
[8] = Resistant factor, ratio of EC50 for antiviral activity against HIV-1 IIIB harboring reverse transcriptase […] mutant to EC50 for antiviral activity against wild type HIV-1 IIIB; assay type: functional
[9] = target: Human immunodeficiency virus type 1 reverse transcriptase (Human immunodeficiency virus 1, UniProt Q72547); assay: Inhibition of recombinant wild type HIV-1 reverse transcriptase using DNA/RNA as substrate incubated for 40 mins by Pico-green dye based spectrofluorometric analysis
[10] = system: Human immunodeficiency virus 1; assay: Antiviral activity against wild type HIV-1 IIIB harboring reverse transcriptase E138K mutant infected in human MT4 cells assessed as protection against virus-induced cytopathic effect incubated for 5 days by MTT assay; assay type: functional, organism-based; conditions: Human immunodeficiency virus 1, IIIB, MT4, 120 h
[11] = system: Human immunodeficiency virus 1; assay: Antiviral activity against wild type HIV-1 IIIB harboring reverse transcriptase Y181C mutant infected in human MT4 cells assessed as protection against virus-induced cytopathic effect incubated for 5 days by MTT assay; assay type: functional, organism-based; conditions: Human immunodeficiency virus 1, IIIB, MT4, 120 h
[12] = Selectivity index, ratio of CC50 for cytotoxicity against human MT4 cells to EC50 for antiviral activity against wild type HIV-1 IIIB infected in human MT4 cells; assay type: toxicity, cell-based; conditions: read-out: Ratio CC50/EC50
[13] = Resistant factor, ratio of EC50 for antiviral activity against HIV-1 IIIB harboring reverse transcriptase Y188L mutant to EC50 for antiviral activity against wild type HIV-1 IIIB; assay type: functional
[14] = system: Human immunodeficiency virus 1; assay: Antiviral activity against wild type HIV-1 IIIB infected in human MT4 cells assessed as protection against virus-induced cytopathic effect incubated for 5 days by MTT assay; assay type: functional, organism-based; conditions: Human immunodeficiency virus 1, IIIB, MT4, 120 h

Cytochrome P450 2C19, sequence (P33261 whole entry): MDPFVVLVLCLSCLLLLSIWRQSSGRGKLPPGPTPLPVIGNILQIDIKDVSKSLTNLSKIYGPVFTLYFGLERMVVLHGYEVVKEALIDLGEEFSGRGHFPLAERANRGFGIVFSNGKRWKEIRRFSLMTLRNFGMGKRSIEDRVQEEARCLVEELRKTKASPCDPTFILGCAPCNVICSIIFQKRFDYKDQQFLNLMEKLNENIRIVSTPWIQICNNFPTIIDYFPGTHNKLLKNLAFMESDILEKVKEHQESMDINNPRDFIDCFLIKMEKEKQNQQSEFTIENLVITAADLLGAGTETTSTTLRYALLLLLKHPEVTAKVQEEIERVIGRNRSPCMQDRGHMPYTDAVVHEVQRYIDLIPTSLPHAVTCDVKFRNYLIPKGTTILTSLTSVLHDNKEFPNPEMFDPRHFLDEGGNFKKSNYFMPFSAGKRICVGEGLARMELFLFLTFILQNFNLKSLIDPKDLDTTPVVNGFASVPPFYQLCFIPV

| Structure (SMILES) | IC50 (Cytochrome P450 2C19) | Ratio EC50 [1] | EC50 [2] | Ratio EC50 [3] | EC50 [4] | CC50 at 120 h [5] | Ratio EC50 [6] | EC50 [7] | Ratio EC50 [8] | IC50 [9] | EC50 [10] | EC50 [11] | selectivity ratio [12] | Ratio EC50 [13] | EC50 [14] |
| --- | --- | --- | --- | --- | --- | --- | --- | --- | --- | --- | --- | --- | --- | --- | --- |
| C=C(C)[C@@H]1CCC2=CC(=O)C[C@@H](C)[C@]2(C)C1 [NOOTKATONE] | 1570 nM |  |  |  |  |  |  |  |  |  |  |  |  |  |  |
| CCCNC(=O)c1cnc(Nc2ccc(C#N)cc2)nc1Oc1c(C)cc(-c2ccc(C#N)cc2)cc1C |  | 15 | 31 nM | 2.4 | 275 nM | 86.6 µM | 3 | 55 nM | 4.2 | 191 nM | 39 nM | 196 nM | 14700 | 21 | 13 nM |
| Cc1cc(-c2ccc(C#N)cc2)cc(C)c1Oc1nc(Nc2ccc(C#N)cc2)ncc1C(=O)NC1CCCCC1 |  | 26 | 1330 nM | 7.6 | 5140 nM | > 230 µM | 4.7 | 1680 nM | 9.7 | 329 nM | 817 nM | 4460 nM | > 1320 | 30 | 174 nM |
| COCCNC(=O)c1cnc(Nc2ccc(C#N)cc2)nc1Oc1c(C)cc(-c2ccc(C#N)cc2)cc1C |  | 10 | 33 nM | 5.8 | 190 nM | 161 µM | 3.5 | 74 nM | 13 | 128 nM | 20 nM | 58 nM | 28100 | 33 | 5 nM |
| Cc1cc(-c2ccc(C#N)cc2)cc(Cl)c1Oc1nc(Nc2ccc(C#N)cc2)ncc1C(N)=O |  | 1.1 | 31 nM | 0.9 | 94 nM | > 41.6 µM | 0.2 | 49 nM | 1.5 | 66 nM | 5 nM | 35 nM | > 1270 | 2.8 | 33 nM |
| N#Cc1ccc(Nc2ncc(C(N)=O)c(Oc3ccc(-c4ccc(C#N)cc4)cc3F)n2)cc1 |  | >1713 | 63400 nM | 391 | > 278000 nM | > 278 µM | 9.9 | 231000 nM | 1429 | 25 nM | 1610 nM | > 278000 nM | > 1720 | >1713 | 162 nM |
| Cc1cc(-c2ccc(C#N)cc2)cc(C)c1Oc1nc(Nc2ccc(C#N)cc2)ncc1C(=O)NC1CCC1 |  | 16 | 308 nM | 4.7 | 1320 nM | > 243 µM | 2.6 | 396 nM | 6.1 | 327 nM | 171 nM | 1020 nM | > 3750 | 20 | 65 nM |
| Cc1cc(-c2ccc(C#N)cc2)cc(C)c1Oc1nc(Nc2ccc(C#N)cc2)ncc1C(=O)NCCO |  | 8.8 | 6 nM | 1.8 | 44 nM | > 39.6 µM | 1.8 | 13 nM | 3.9 | 55 nM | 6 nM | 29 nM | > 11900 | 13 | 3 nM |
| CNC(=O)c1cnc(Nc2ccc(C#N)cc2)nc1Oc1c(C)cc(-c2ccc(C#N)cc2)cc1C |  | 8.2 | 5 nM | 1.5 | 34 nM | > 42.1 µM | 1.8 | 9 nM | 2.7 | 56 nM | 6 nM | 27 nM | > 12700 | 10 | 3 nM |
